Source: patent US20110053773A1, “METHODS OF IMPROVING NUTRITIONAL VALUE OF PLANTS” (UNIVERSITY OF TENNESSEE RESEARCH FOUNDATION, priority 2009, published 2011)

Legend:
kale 'Red Russian' [1] = experiment: Content analysis of kale: protein, amino acids, fiber, fatty acids, minerals (Example 4, Tables 12-14); assay type: in vivo; settings: 28 DA-A, second-listed rate g ai/ha: chlropyrifos ###, chlorothalonil ###, paclobutrazol 9.7, mepiquat-chloride 37, + NIS 0.3 % v/v
Experimental: (§1) Greenhouse and laboratory studies were conducted to ascertain the tolerance and nutritional quality differences following postemergence applications of the insecticide chlorpyrifos, the fungicide chlorothalonil, the PGRs mepiquat-chloride and paclobutrazol, and the safeners napthalic anhydride and isoxadifen-ethyl on kale ‘Red Russian’ and basil ‘Genovese’. Visual injury was rated based on general phytotoxicity, chlorosis, and visual stunting and each measurement was based on a percent scale from 0 to 100 where 0 equals no visual response and 100 equals complete plant death. Kale and basil were both harvested approximately 4 weeks after treatments and plants were pooled over replicates for content analysis of crude protein, crude amino acid content, acid detergent fiber, neutral detergent fiber, total fatty acids, and/or key mineral content (including Na, Ca, P, Mg, K, Fe, Mn, Zn, and Cu). In addition, the amounts of key individual amino acids (aspartic acid, threonine, glutamic acid, proline, glycine, cysteine, valine, leucine, isoleucine, methionine, and lysine) and composite classifications of fatty acid (saturated fatty acids, monounsaturated fatty acids, polyunsaturated fatty acids) were also analyzed from these sub-samples for kale (Tables 10-14).

basil ‘Genovese’ = experiment: Yield, fresh weight of basil after insecticide, fungicide, PGRs and safeners (Example 4, Table 10); assay type: in vivo; settings: DA-A, check 31.8
Procedure, shortened: (§2)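 Plants received postemergence sprays of one insecticide, one fungicide, two PGRs or two safeners in the greenhouse. About 4 weeks later they were harvested, and replicates were pooled for laboratory content analysis. Injury was rated visually on a 0–100% scale.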

basil 'Genovese' = experiment: Content analysis of basil: protein, minerals (Example 4, Tables 10-11); assay type: in vivo; settings: 28 DA-A
Procedure, shortened: as §2

kale ‘Red Russian’ = experiment: Yield, fresh weight of kale after insecticide, fungicide and PGRs (Example 4, Table 12); assay type: in vivo; settings: 28 DA-A, Untreated Check 106.9
Experimental: as §1

kale 'Red Russian' [2] = experiment: Visual injury of kale after insecticide, fungicide, PGRs, safeners (Example 4)
Experimental: as §1

[3] = rates g ai/ha: chlropyrifos 1120, chlorothalonil 2630, paclobutrazol 3.23, mepiquat-chloride 12.3, Isoxadifen 8, Napthalic anhydride 264, + NIS 0.25 % v/v
[4] = rates g ai/ha: chlroprifos 3370, chlorothalonil 7900, paclobutrazol 9.7, mepiquat-chloride 37, Isoxadifen 16, Napthalic anhydride 527, + NIS 0.25 % v/v
[5] = 7 DA-A, rates g ai/ha: chlropyrifos 1120, chlorothalonil 2630, paclobutrazol 3.23, mepiquat-chloride 12.3, + NIS 0.25 % v/v
[6] = 7 DA-A, rates g ai/ha: chlropyrifos 3370, chlorothalonil 7900, paclobutrazol 9.7, mepiquat-chloride 37, + NIS 0.25 % v/v
[7] = 14 DA-A, rates g ai/ha: chlropyrifos 1120, chlorothalonil 2630, paclobutrazol 3.23, mepiquat-chloride 12.3, + NIS 0.25 % v/v
[8] = 14 DA-A, rates g ai/ha: chlropyrifos 3370, chlorothalonil 7900, paclobutrazol 9.7, mepiquat-chloride 37, + NIS 0.25 % v/v
[9] = 28 DA-A, rates g ai/ha: chlropyrifos 1120, chlorothalonil 2630, paclobutrazol 3.23, mepiquat-chloride 12.3, + NIS 0.25 % v/v
[10] = 28 DA-A, rates g ai/ha: chlropyrifos 3370, chlorothalonil 7900, paclobutrazol 9.7, mepiquat-chloride 37, + NIS 0.25 % v/v

`CC(C)(C)[C@@H](O)[C@@H](Cc1ccc(Cl)cc1)n1cncn1` (racemic) [paclobutrazol] was tested, and the “Glycine, Percent Increase over the Untreated Check (on a % dry matter basis)” value (kale 'Red Russian' [1]) was 3 % check, the “Iso-leucine, Percent Increase over the Untreated Check (on a % dry matter basis)” value (kale 'Red Russian' [1]) was 6 % check and the “Leucine, Percent Increase over the Untreated Check (on a % dry matter basis)” value (kale 'Red Russian' [1]) was 5 % check. For the same molecule, the “Lysine, Percent Increase over the Untreated Check (on a % dry matter basis)” value (kale 'Red Russian' [1]) was 14 % check, the “Methionine, Percent Increase over the Untreated Check (on a % dry matter basis)” value (kale 'Red Russian' [1]) was 2 % check and the “Proline, Percent Increase over the Untreated Check (on a % dry matter basis)” value (kale 'Red Russian' [1]) was 7 % check. For the same molecule, the “Threonine, Percent Increase over the Untreated Check (on a % dry matter basis)” value (kale 'Red Russian' [1]) was 4 % check, the “Total Amino acids, Percent Increase over the Untreated Check (on a % dry matter basis)” value (kale 'Red Russian' [1]) was 9 % check and the “Total Protein, Percent Increase over the Untreated Check (on a % dry matter basis)” value (kale 'Red Russian' [1]) was 13 % check. The “Valine, Percent Increase over the Untreated Check (on a % dry matter basis)” value (kale 'Red Russian' [1]) was 6 % check, the “Yield Fresh weight” value (basil ‘Genovese’; [3]) was 22.4 grams and the “Yield Fresh weight” value (basil ‘Genovese’; rates g ai/ha: chlropyrifos 3370, chlorothalonil 7900, paclobutrazol 9.7, mepiquat-chloride 37, Isoxadifen 16, Napthalic anhydride 527, + NIS 0.25 % v/v) was 24.4 grams. For the same molecule, the “ADF, Percent Increase Over the Untreated Check (on a % dry matter basis)” value (basil 'Genovese'; [4]) was −12 % check, the “Calcium, Percent Increase Over the Untreated Check (on a % dry matter basis)” value (basil 'Genovese'; [4]) was −18 % check and the “Copper, Percent Increase Over the Untreated Check (on a % dry matter basis)” value (basil 'Genovese'; [4]) was −25 % check. For the same molecule, the “Iron, Percent Increase Over the Untreated Check (on a % dry matter basis)” value (basil 'Genovese'; [4]) was 4 % check, the “Magnesium, Percent Increase Over the Untreated Check (on a % dry matter basis)” value (basil 'Genovese'; [4]) was −9 % check and the “Manganese, Percent Increase Over the Untreated Check (on a % dry matter basis)” value (basil 'Genovese'; [4]) was −12 % check. For the same molecule, the “NDF, Percent Increase Over the Untreated Check (on a % dry matter basis)” value (basil 'Genovese'; [4]) was −8 % check, the “Phosphorous, Percent Increase Over the Untreated Check (on a % dry matter basis)” value (basil 'Genovese'; [4]) was 0 % check and the “Potassium, Percent Increase Over the Untreated Check (on a % dry matter basis)” value (basil 'Genovese'; [4]) was −5 % check. The “Protein, Percent Increase Over the Untreated Check (on a % dry matter basis)” value (basil 'Genovese'; [4]) was −9 % check, the “Sodium, Percent Increase Over the Untreated Check (on a % dry matter basis)” value (basil 'Genovese'; [4]) was −17 % check and the “Soluble protein, Percent Increase Over the Untreated Check (on a % dry matter basis)” value (basil 'Genovese'; [4]) was 12 % check. The “Zinc, Percent Increase Over the Untreated Check (on a % dry matter basis)” value (basil 'Genovese'; [4]) was −8 % check, the “ADF, Percent Increase Over the Untreated Check (on a % dry matter basis)” value (basil 'Genovese'; [3]) was 7 % check and the “Calcium, Percent Increase Over the Untreated Check (on a % dry matter basis)” value (basil 'Genovese'; [3]) was −2 % check. For the same molecule, the “Copper, Percent Increase Over the Untreated Check (on a % dry matter basis)” value (basil 'Genovese'; [3]) was 8 % check, the “Iron, Percent Increase Over the Untreated Check (on a % dry matter basis)” value (basil 'Genovese'; [3]) was 63 % check and the “Magnesium, Percent Increase Over the Untreated Check (on a % dry matter basis)” value (basil 'Genovese'; [3]) was −8 % check. For the same molecule, the “Manganese, Percent Increase Over the Untreated Check (on a % dry matter basis)” value (basil 'Genovese'; [3]) was 26 % check, the “NDF, Percent Increase Over the Untreated Check (on a % dry matter basis)” value (basil 'Genovese'; [3]) was 7 % check and the “Phosphorous, Percent Increase Over the Untreated Check (on a % dry matter basis)” value (basil 'Genovese'; [3]) was 2 % check. The “Potassium, Percent Increase Over the Untreated Check (on a % dry matter basis)” value (basil 'Genovese'; [3]) was −1 % check, the “Protein, Percent Increase Over the Untreated Check (on a % dry matter basis)” value (basil 'Genovese'; [3]) was 6 % check and the “Sodium, Percent Increase Over the Untreated Check (on a % dry matter basis)” value (basil 'Genovese'; [3]) was −25 % check. For the same molecule, the “Soluble protein, Percent Increase Over the Untreated Check (on a % dry matter basis)” value (basil 'Genovese'; [3]) was 50 % check, the “Zinc, Percent Increase Over the Untreated Check (on a % dry matter basis)” value (basil 'Genovese'; [3]) was 28 % check and the “Yield Fresh weight” value (kale ‘Red Russian’; rates g ai/ha: chlropyrifos 1120, chlorothalonil 2630, paclobutrazol 3.23, mepiquat-chloride 12.3, + NIS 0.25 % v/v) was 107.2 grams. The “Yield Fresh weight” value (kale ‘Red Russian’; rates g ai/ha: chlropyrifos 3370, chlorothalonil 7900, paclobutrazol 9.7, mepiquat-chloride 37, + NIS 0.25 % v/v) was 108.3 grams, the “Phytotoxicity Chlorosis” value (kale 'Red Russian' [2]; [5]) was 1% and the “Phytotoxicity General” value (kale 'Red Russian' [2]; [5]) was 10%. For the same molecule, the “Phytotoxicity Stunting” value (kale 'Red Russian' [2]; [5]) was 6%, the “Phytotoxicity Chlorosis” value (kale 'Red Russian' [2]; [6]) was 0% and the “Phytotoxicity General” value (kale 'Red Russian' [2]; [6]) was 9%. For the same molecule, the “Phytotoxicity Stunting” value (kale 'Red Russian' [2]; [6]) was 11%, the “Phytotoxicity Chlorosis” value (kale 'Red Russian' [2]; [7]) was 10% and the “Phytotoxicity General” value (kale 'Red Russian' [2]; [7]) was 3%. The “Phytotoxicity Stunting” value (kale 'Red Russian' [2]; [7]) was 19%, the “Phytotoxicity Chlorosis” value (kale 'Red Russian' [2]; [8]) was 16% and the “Phytotoxicity General” value (kale 'Red Russian' [2]; [8]) was 6%. The “Phytotoxicity Stunting” value (kale 'Red Russian' [2]; [8]) was 28%, the “Phytotoxicity Chlorosis” value (kale 'Red Russian' [2]; [9]) was 3% and the “Phytotoxicity General” value (kale 'Red Russian' [2]; [9]) was 3%. For the same molecule, the “Phytotoxicity Stunting” value (kale 'Red Russian' [2]; [9]) was 21%, the “Phytotoxicity Chlorosis” value (kale 'Red Russian' [2]; [10]) was 0% and the “Phytotoxicity General” value (kale 'Red Russian' [2]; [10]) was 4%. The “Phytotoxicity Stunting” value (kale 'Red Russian' [2]; [10]) was 19%.
